Measured values taken from publication PMC6412891, “Synthesis and Biological Evaluation of Novel Thiazolyl-Coumarin Derivatives as Potent Histone Deacetylase Inhibitors with Antifibrotic Activity” (Molecules, 2019).

Tests used:
HDAC1 human recombinant = target: T1, HDAC1 human recombinant (Homo sapiens, UniProt Q13547); test: HDAC1 inhibitory activity, fluorometric kit; assay type: biochemical; conditions: Class I
T1 construct: purchased Enzo Life Science BML-AK511

HDAC6 human recombinant = target: T2, HDAC6 human recombinant (Homo sapiens, UniProt Q9UBN7); test: HDAC6 inhibitory activity, fluorometric kit; assay type: biochemical; conditions: Class II
T2 construct: purchased Enzo Life Science BML-AK516
T2 sequence (Q9UBN7 1-1215): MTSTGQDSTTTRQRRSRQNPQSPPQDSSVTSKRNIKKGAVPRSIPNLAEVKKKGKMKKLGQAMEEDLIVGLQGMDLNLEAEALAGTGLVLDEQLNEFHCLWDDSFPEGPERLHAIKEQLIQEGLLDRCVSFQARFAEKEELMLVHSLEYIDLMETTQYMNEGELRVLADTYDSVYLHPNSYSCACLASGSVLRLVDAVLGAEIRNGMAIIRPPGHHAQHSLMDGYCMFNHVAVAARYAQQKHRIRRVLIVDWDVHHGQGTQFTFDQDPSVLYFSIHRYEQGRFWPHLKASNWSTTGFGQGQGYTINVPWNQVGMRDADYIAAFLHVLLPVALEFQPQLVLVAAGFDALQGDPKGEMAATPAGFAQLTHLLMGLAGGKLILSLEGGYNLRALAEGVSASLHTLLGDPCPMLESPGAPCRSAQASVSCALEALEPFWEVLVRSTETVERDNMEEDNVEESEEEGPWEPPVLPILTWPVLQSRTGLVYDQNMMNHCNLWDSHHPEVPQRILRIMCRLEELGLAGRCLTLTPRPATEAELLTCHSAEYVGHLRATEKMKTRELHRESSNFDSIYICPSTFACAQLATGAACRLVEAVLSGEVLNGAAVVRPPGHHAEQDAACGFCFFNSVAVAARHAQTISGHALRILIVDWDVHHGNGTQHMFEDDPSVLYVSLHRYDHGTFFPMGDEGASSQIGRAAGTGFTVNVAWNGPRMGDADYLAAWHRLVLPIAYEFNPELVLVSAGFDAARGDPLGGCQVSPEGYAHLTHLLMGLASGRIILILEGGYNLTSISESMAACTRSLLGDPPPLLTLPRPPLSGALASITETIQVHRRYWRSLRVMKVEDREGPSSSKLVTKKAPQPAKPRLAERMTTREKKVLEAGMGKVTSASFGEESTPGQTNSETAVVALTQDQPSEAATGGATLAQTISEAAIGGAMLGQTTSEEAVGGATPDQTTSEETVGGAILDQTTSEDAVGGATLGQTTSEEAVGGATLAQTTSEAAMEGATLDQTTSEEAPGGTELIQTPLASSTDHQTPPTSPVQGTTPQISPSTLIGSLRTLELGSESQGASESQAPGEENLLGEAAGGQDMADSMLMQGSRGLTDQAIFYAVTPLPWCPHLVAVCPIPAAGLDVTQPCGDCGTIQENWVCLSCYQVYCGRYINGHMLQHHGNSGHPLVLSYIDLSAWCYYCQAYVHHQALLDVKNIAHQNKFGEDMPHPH

[1] = test system: HDACs HeLa cells nuclear extract; test: HDAC inhibitory activity, fluorometric kit, HeLa cell nuclear extract; assay type: biochemical, human; conditions: HeLa cell nuclear extract as HDAC source

T1 sequence (Q13547 whole entry): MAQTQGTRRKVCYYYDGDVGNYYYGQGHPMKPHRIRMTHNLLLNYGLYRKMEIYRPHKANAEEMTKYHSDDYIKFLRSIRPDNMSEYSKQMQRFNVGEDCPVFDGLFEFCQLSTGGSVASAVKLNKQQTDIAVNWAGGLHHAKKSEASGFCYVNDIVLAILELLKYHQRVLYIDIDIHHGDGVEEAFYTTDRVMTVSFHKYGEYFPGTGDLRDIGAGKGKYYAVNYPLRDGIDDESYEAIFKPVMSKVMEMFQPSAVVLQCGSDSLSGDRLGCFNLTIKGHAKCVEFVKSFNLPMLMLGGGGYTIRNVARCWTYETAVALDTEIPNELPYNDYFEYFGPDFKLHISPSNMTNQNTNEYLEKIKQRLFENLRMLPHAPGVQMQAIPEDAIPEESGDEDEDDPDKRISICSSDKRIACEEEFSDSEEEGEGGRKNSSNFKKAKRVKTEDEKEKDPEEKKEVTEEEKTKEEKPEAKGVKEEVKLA

`O=C(Nc1nc(-c2cc3ccccc3oc2=O)cs1)c1ccc(O)c(O)c1` [Compound 6a] was tested, and the IC50 (HDAC1 human recombinant) was 423 ± 30.2 nM, the IC50 (HDAC6 human recombinant) was 276 ± 20.9 nM and the IC50 [1] was 574 ± 24.4 nM.
`O=C(O)CCCCC(=O)Nc1nc(-c2cc3ccccc3oc2=O)cs1` [Compound 7a] was tested, and the IC50 (HDAC1 human recombinant) was 7690 ± 328 nM, the IC50 (HDAC6 human recombinant) was 5590 ± 184 nM and the IC50 [1] was 6100 ± 390 nM.
For `O=C(CCCCC(=O)Nc1nc(-c2cc3ccccc3oc2=O)cs1)NO` [Compound 8a, 5-[4-(2-Oxo-2H-chromen-3-yl)-thiazol-2-yl-carbamoyl]-N-hydroxypentanamide], the IC50 (HDAC1 human recombinant) was 50.6 ± 2.1 nM, the IC50 (HDAC6 human recombinant) was 98.3 ± 3.5 nM and the IC50 [1] was 66.9 ± 1.8 nM.
`O=C(CCCCC1CCSS1)Nc1nc(-c2cc3ccccc3oc2=O)cs1` (stereo not drawn) [Compound 5a, 5-[1,2]-Dithiolan-3-yl-N-[4-(2-oxo-2H-chromen-3-yl)-thiazol-2-yl]-pentanamide] showed an IC50 (HDAC1 human recombinant) of 60.4 ± 1.7 nM, an IC50 (HDAC6 human recombinant) of 153 ± 5.3 nM and an IC50 [1] of 66.7 ± 2.9 nM.
